Results on five compounds are retold here after patent US20080319043A1, “3,6-Disubstituted Azabicyclo (3.1.0) Hexane Derivatives as Muscarinic Receptor Antagonists” (priority 2005, published 2008).

One data set deals with isolated rat bladder. Put plainly: tissue or blood. The settings on record: read-out: pKb (converted).

The melting point is the temperature of the solid-liquid transition. In the case of `O=C(NCC1C2CNCC21)C(O)(c1ccccc1)c1cccs1` (centres unmarked) [Compound No. 18, N-(3-Azabicyclo[3.1.0]hex-6-ylmethyl)-2-hydroxy-2-phenyl-2-(2-thienyl)acetamide], the melting point lay within 70 to 75 °C.

As for `Cc1cccc(C(O)(C(=O)OCC2C3CNCC32)c2cccc(C)c2)c1` (centres unmarked) [Compound No. 27, 3-Azabicyclo[3.1.0]hex-6-ylmethyl hydroxy[bis(3-methylphenyl)]acetate], the melting point lay in the range of 105 to 108 °C.

Regarding `Nc1cccc(CN2CC3C(CNC(=O)C(O)(c4ccccc4)C4CCCC4)C3C2)n1` (centres unmarked) [Compound No. 51, N-({3-[(6-Aminopyridin-2-yl)methyl]-3-azabicyclo[3.1.0]hex-6-yl}methyl)-2-cyclopentyl-2-hydroxy-2-phenylacetamide], in the data set on isolated rat bladder, the Kb is 2.51 to 39.8 nM.

Turning to `CC1C2C(CNC(=O)C(O)(c3ccccc3)C3CCCC3)C2CN1Cc1ccccc1` (centres unmarked) [Compound No. 60, N-[(3-Benzyl-2-methyl-3-azabicyclo[3.1.0]hex-6-yl)methyl]-2-cyclopentyl-2-hydroxy-2-phenylacetamide], the Kb with isolated rat bladder is 2.51 to 39.8 nM.

Consider `O=C(NCC1C2CN(Cc3ccc4c(c3)OCO4)CC12)C(O)(c1ccccc1)C1CCCCC1` (centres unmarked) [Compound No. 80, N-{[3-(1,3-Benzodioxol-5-ylmethyl)-3-azabicyclo[3.1.0]hex-6-yl]methyl}-2-cyclohexyl-2-hydroxy-2-phenylacetamide], for which the Kb in the data set on isolated rat bladder was 2.51 to 39.8 nM.
